Experimental data reported in patent US11535597B2, “Photoreactive ligands and uses thereof” (The Scripps Research Institute, priority 2017, dated 2022).

Assays:
BAX = biological target: T1, BAX (Homo sapiens, UniProt Q07812); assay: Mapping of FFF probe-modified peptide on BAX; format: binding; settings: for Labeled Peptide: residues of probe-labeled peptide
T1 construct: endogenous in cells; host or cells: human cells (HEK293T; a subset of probes also in K562)
Experimental: (§1) Preparation and analysis was adapted from methods previously reported. In brief, for global mapping of fragment probe-modified peptides, separate 10 cm dishes of cells were treated with probes (200-250 μM) in 3.0 mL of DMEM (serum-free) and (if applicable) competitor ligands, proteomes harvested and subjected to click chemistry conditions with either light or heavy isotopically labeled biotin-TEV-azide (10 μL of 5 mM stocks in DMSO, final concentration=100 μM), TCEP, ligand and CuSO4 as detailed above. The samples were allowed to react for 1 h at which point the samples were centrifuged (16,000 g, 5 min, 4° C.). The resulting pellets were sonicated in ice-cold methanol (500 μL) and the resuspended light- and heavy-labeled samples were then combined and centrifuged (16,000 g, 5 min, 4° C.). The pellets were then solubilized in PBS containing 1.2% SDS (1 mL) with sonication and heating (5 min, 95° C.). Samples were transferred to falcon tubes containing DPBS (5 mL), to which a 100 μL of streptavidin-agarose beads slurry was added. After incubation, the beads (3 hr) were pelleted by centrifugation (1,400 g, 3 min) and were washed (2×10 mL PBS and 2×10 mL water). The beads were transferred to eppendorf tubes with 1 mL DPBS, centrifuged (1,400 g, 3 min), and resuspended in PBS containing 6 M urea. To this was added 10 mM DTT (25 μL of a 200 mM stock in water) and the beads were incubated at 65° C. for 15 mins. 20 mM iodoacetamide (25 μL of a 400 mM stock in water) was then added and allowed to react at 37° C. for 30 mins with shaking. The bead mixture was diluted with 900 μL PBS, pelleted by centrifugation (1,400 g, 3 min), and resuspended in 200 μL 2M urea (DPBS) containing trypsin and CaCl2 as described above. […]
(§2) The resulting probe-modified peptides were collected for MS analysis, which was performed as described above with differences in the salt bumps applied in the chromatographic gradients which in this case were 0%, 30%, 60%, 90% and 100% NH4OAc (500 μM). […] The isoTOP ratios for probe labeled peptides were quantified using the in-house software CIMAGE. […]

YWHAE = biological target: T2, YWHAE (Homo sapiens, UniProt P62258); assay: Mapping of FFF probe-modified peptide on YWHAE; format: binding; settings: for Labeled Peptide (residues) of YWHAE 14-3-3 protein epsilon: P62258, PDB 3UBW
T2 construct: endogenous in cells; host or cells: human cells (HEK293T; a subset of probes also in K562)
T2 sequence (P62258 1-255): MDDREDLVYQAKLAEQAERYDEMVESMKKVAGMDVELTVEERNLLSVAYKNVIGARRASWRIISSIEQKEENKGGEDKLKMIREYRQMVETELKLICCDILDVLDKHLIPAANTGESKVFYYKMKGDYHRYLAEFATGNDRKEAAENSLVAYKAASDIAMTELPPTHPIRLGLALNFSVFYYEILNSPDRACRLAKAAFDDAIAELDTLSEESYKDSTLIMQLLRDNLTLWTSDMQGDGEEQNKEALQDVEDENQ
Experimental: as §1, §2

T1 sequence (Q07812 whole entry): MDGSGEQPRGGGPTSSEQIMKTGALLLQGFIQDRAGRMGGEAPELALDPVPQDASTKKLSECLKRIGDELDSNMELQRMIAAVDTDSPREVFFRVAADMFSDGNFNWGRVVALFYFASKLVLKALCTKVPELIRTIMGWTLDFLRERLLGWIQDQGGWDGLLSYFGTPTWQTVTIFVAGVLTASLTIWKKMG

Structure (SMILES): C#CCCC1(CCC(=O)N2CCCCC2Cc2ccccc2)N=N1 (stereo not drawn) [probe 13, 1-(2-Benzylpiperidin-1-yl)-3-(3-(but-3-yn-1-yl)-3H-diazirin-3-yl)propan-1-one]
- probe-modified peptide in BAX (BAX; groove that binds BH3-domain activators Bim and Bid): aa 66-79
- Labeled Peptide (BAX; protein BAX (Q07812)): 66-78
- Labeled Peptide (BAX; protein BAX Apoptosis regulator BAX): 66-78
- Labeled Peptide (residues) of YWHAE 14-3-3 protein epsilon (YWHAE; peptide AAFDDAIAELDTLSEESYK): 197-215
- Labeled Peptide (residues) of YWHAE 14-3-3 protein epsilon (YWHAE; peptide EAAENSLVAYK): 143-153
- probe-modified peptide in YWHAE (YWHAE; lines the primary interaction cleft for MLF1): aa 197-215
